Here are results for 31 compounds from patent US20040176431A1, “Antiproliferative 2-(sulfo-phenyl)-aminothiazole derivatives and pharmaceutical compositions, and methods for their use” (Pfizer, Inc., priority 2003, published 2004).

For this experiment, the target named is T1, CDK4/cyclin D3 (Homo sapiens, UniProt P11802).
T1 construct: made in house; host or cells: insect cells (baculovirus co-infection)
As to the kind of experiment: Inhibition of CDK4/Cyclin D retinoblastoma kinase activity.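 As to % Inhib CDK4/D @ 1 μM: relative to DMSO control wells without compound minus no-enzyme background.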 It is filed as biochemical. To be noted: for inhibition at 0.1 µM / % Inhib CDK4/D @ 0.1 μM: test compound at 0.1 μM; for inhibition at 0.1 µM: read-out: % Inhib CDK4/D @ 0.1 μM; for inhibition at 1 µM / % Inhib CDK4/D @ 1 μM: test compound at 1 μM (head line shifted: 'mM' printed beside 'Structure'); for inhibition at 1 µM: read-out: % Inhib CDK4/D @ 1 μM; for inhibition at 0.03 µM / % Inhib CDK4/D @ 0.03: test compound at 0.03 (unit cell empty, head line shifted; μM); for inhibition at 0.03 µM: read-out: % Inhib CDK4/D @ 0.03. An outline of the steps:
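Apparent Ki derived by fitting activity at varied inhibitor concentrations to competitive (or competitive tight-binding) inhibition equations, background without enzyme subtracted. Radiometric filter-binding read-out of Rb(386-928) phosphorylation by 5 nM CDK4/cyclin D3(1-264); 25 μM ATP, pH 7.4, 2% DMSO, 30° C., 20 min, extended to 60 min for tight binders.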

T1 sequence (P11802 whole entry): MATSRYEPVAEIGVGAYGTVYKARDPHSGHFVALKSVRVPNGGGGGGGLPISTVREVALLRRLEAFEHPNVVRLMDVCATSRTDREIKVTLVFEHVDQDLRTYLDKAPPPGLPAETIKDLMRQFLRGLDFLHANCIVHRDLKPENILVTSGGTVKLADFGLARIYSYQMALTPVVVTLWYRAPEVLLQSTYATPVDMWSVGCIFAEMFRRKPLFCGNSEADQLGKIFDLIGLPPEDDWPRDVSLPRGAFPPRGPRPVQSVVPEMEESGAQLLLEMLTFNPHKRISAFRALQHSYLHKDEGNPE
T1 sequence (P30281 1-264 partner limits assumed): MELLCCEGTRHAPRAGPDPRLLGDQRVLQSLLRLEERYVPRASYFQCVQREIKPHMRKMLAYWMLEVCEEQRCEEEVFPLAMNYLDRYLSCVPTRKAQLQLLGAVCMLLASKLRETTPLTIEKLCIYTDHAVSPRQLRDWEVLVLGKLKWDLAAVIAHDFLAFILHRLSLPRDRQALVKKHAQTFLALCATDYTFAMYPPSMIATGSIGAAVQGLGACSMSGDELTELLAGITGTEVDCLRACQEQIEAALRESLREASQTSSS

For `CC(C)OC(=O)C[S+]([O-])c1ccc(Nc2nc(N)c(C(=O)c3c(Cl)cccc3Cl)s2)cc1` (stereo not drawn) [DD(103)], the inhibition at 0.1 µM is 38%, the inhibition at 1 µM was found to be 47.5% and the inhibition at 0.03 µM is -2.9%.

In the case of `CC(C)=CC[S+]([O-])c1ccc(Nc2nc(N)c(C(=O)c3c(Cl)cccc3Cl)s2)cc1` (stereo not drawn) [DD(104)], the inhibition at 0.1 µM was 14%, the inhibition at 1 µM was 36.4% and the inhibition at 0.03 µM was -38%.

As for `CCC[S+]([O-])c1ccc(Nc2nc(N)c(C(=O)c3c(Cl)cccc3Cl)s2)cc1` (stereo not drawn) [DD(105)], the inhibition at 0.1 µM came to 39%, the inhibition at 1 µM came out at 61.9% and the inhibition at 0.03 µM stood at 0.9%.

Turning to `COC(=O)C[S+]([O-])c1ccc(Nc2nc(N)c(C(=O)c3c(Cl)cccc3Cl)s2)cc1` (stereo not drawn) [DD(106)], the inhibition at 0.1 µM came to 45%, the inhibition at 1 µM was 66.8% and the inhibition at 0.03 µM came out at 1.7%.

In the case of `CN1CCCC(C[S+]([O-])c2ccc(Nc3nc(N)c(C(=O)c4c(Cl)cccc4Cl)s3)cc2)C1` (stereo not drawn) [DD(107)], the inhibition at 0.1 µM is 28%, the inhibition at 1 µM came out at 47.3% and the inhibition at 0.03 µM was -11%.

As for `NC(=O)CC[S+]([O-])c1ccc(Nc2nc(N)c(C(=O)c3c(Cl)cccc3Cl)s2)cc1` (stereo not drawn) [DD(108)], the inhibition at 0.1 µM turned out to be 60%, the inhibition at 1 µM came out at 73.9% and the inhibition at 0.03 µM is 14%.

With `Nc1nc(Nc2ccc([S+]([O-])CCO)cc2)sc1C(=O)c1c(Cl)cccc1Cl` (stereo not drawn) [DD(109)], the “% Inhib CDK4/D @ 0.1 μM” value was 67%, the “% Inhib CDK4/D @ 1 μM” value came out at 73.5% and the “% Inhib CDK4/D @ 0.03” value is 25%.

On to `Nc1nc(Nc2ccc([S+]([O-])CCO)cc2)sc1C(=O)c1c(Cl)cccc1Cl` (stereo not drawn) [DD(110)], for which the “% Inhib CDK4/D @ 0.1 μM” value was found to be 27%, the “% Inhib CDK4/D @ 1 μM” value turned out to be 28.9% and the “% Inhib CDK4/D @ 0.03” value was determined as 3.7%.

Take `CC(C)CCOC(=O)C[S+]([O-])c1ccc(Nc2nc(N)c(C(=O)c3c(Cl)cccc3Cl)s2)cc1` (stereo not drawn) [DD(111)]: the inhibition at 0.1 µM was determined as 32%, the inhibition at 1 µM came to 64.8% and the inhibition at 0.03 µM is -1.7%.

With `CN(C)CC[S+]([O-])c1ccc(Nc2nc(N)c(C(=O)c3c(Cl)cccc3Cl)s2)cc1` (stereo not drawn) [DD(112)], the inhibition at 0.1 µM came out at 27%, the inhibition at 1 µM was 63.2% and the inhibition at 0.03 µM was -4.9%.

For `CCOCC[S+]([O-])c1ccc(Nc2nc(N)c(C(=O)c3c(Cl)cccc3Cl)s2)cc1` (stereo not drawn) [DD(113)], the inhibition at 0.1 µM turned out to be 30%, the inhibition at 1 µM came out at 59.4% and the inhibition at 0.03 µM was 1.1%.

Take `Nc1nc(Nc2ccc([S+]([O-])CC(O)CO)cc2)sc1C(=O)c1c(Cl)cccc1Cl` (stereo not drawn) [DD(114)]: the inhibition at 0.1 µM was found to be 46%, the inhibition at 1 µM turned out to be 77.9% and the inhibition at 0.03 µM came to 16%.

For the compound `Nc1nc(Nc2ccc([S+]([O-])Cc3ccncc3)cc2)sc1C(=O)c1c(Cl)cccc1Cl` (stereo not drawn) [DD(115)], the inhibition at 0.1 µM amounted to 45%, the inhibition at 1 µM is 68.5% and the inhibition at 0.03 µM is 6.3%.

Take `CCC(CC)C[S+]([O-])c1ccc(Nc2nc(N)c(C(=O)c3c(Cl)cccc3Cl)s2)cc1` (stereo not drawn) [DD(116)]: the inhibition at 0.1 µM is 15%, the inhibition at 1 µM was 26.6% and the inhibition at 0.03 µM is -2.9%.

As to `CC(=O)OCC[S+]([O-])c1ccc(Nc2nc(N)c(C(=O)c3c(Cl)cccc3Cl)s2)cc1` (stereo not drawn) [DD(117)], the inhibition at 0.1 µM worked out at 52%, the inhibition at 1 µM is 61.1% and the inhibition at 0.03 µM was 16%.

For `CC(C)OC(=O)CC[S+]([O-])c1ccc(Nc2nc(N)c(C(=O)c3c(Cl)cccc3Cl)s2)cc1` (stereo not drawn) [DD(118)], the inhibition at 0.1 µM turned out to be 22%, the inhibition at 1 µM is 49.9% and the inhibition at 0.03 µM is -0.7%.

Turning to `Nc1nc(Nc2ccc([S+]([O-])CCN3CCOCC3)cc2)sc1C(=O)c1c(Cl)cccc1Cl` (stereo not drawn) [DD(119)], the inhibition at 0.1 µM stood at 36%, the inhibition at 1 µM stood at 58% and the inhibition at 0.03 µM was found to be 3.8%.

For the compound `CC(C)(CO)C[S+]([O-])c1ccc(Nc2nc(N)c(C(=O)c3c(Cl)cccc3Cl)s2)cc1` (stereo not drawn) [DD(120)], the inhibition at 0.1 µM is 29%, the inhibition at 1 µM stood at 57.1% and the inhibition at 0.03 µM was -34%.

In the case of `CCN(CC)C(=O)C[S+]([O-])c1cccc(Nc2nc(N)c(C(=O)c3c(Cl)cccc3Cl)s2)c1` (stereo not drawn) [DD(121)], the inhibition at 0.1 µM turned out to be 41%, the inhibition at 1 µM was found to be 59.8% and the inhibition at 0.03 µM was -0.5%.

With `Cc1noc(C)c1C[S+]([O-])c1cccc(Nc2nc(N)c(C(=O)c3c(Cl)cccc3Cl)s2)c1` (stereo not drawn) [DD(122)], the inhibition at 0.1 µM was determined as 40%, the inhibition at 1 µM came to 54.3% and the inhibition at 0.03 µM was determined as 16%.

For the compound `CC(CN(C)C)C[S+]([O-])c1cccc(Nc2nc(N)c(C(=O)c3c(Cl)cccc3Cl)s2)c1` (stereo not drawn) [DD(123)], the inhibition at 0.1 µM was 34%, the inhibition at 1 µM is 51.2% and the inhibition at 0.03 µM is 8%.

Take `COC(=O)/C=C/C[S+]([O-])c1cccc(Nc2nc(N)c(C(=O)c3c(Cl)cccc3Cl)s2)c1` (stereo not drawn) [DD(124)]: the inhibition at 0.1 µM was found to be 34%, the inhibition at 1 µM is 38.8% and the inhibition at 0.03 µM was 2.1%.

For `Nc1nc(Nc2cccc([S+]([O-])CCCO)c2)sc1C(=O)c1c(Cl)cccc1Cl` (stereo not drawn) [DD(125)], the inhibition at 0.1 µM amounted to 55%, the inhibition at 1 µM amounted to 61.5% and the inhibition at 0.03 µM was 15%.

In the case of `C=CCC[S+]([O-])c1cccc(Nc2nc(N)c(C(=O)c3c(Cl)cccc3Cl)s2)c1` (stereo not drawn) [DD(126)], the inhibition at 0.1 µM was determined as 28%, the inhibition at 1 µM was 43.1% and the inhibition at 0.03 µM was 7.5%.

Regarding `Nc1nc(Nc2cccc([S+]([O-])CCN3CCCC3)c2)sc1C(=O)c1c(Cl)cccc1Cl` (stereo not drawn) [DD(127)], the inhibition at 0.1 µM was determined as 34%, the inhibition at 1 µM turned out to be 49.6% and the inhibition at 0.03 µM was -4.3%.

With `Nc1nc(Nc2cccc([S+]([O-])Cc3ncon3)c2)sc1C(=O)c1c(Cl)cccc1Cl` (stereo not drawn) [DD(128)], the inhibition at 0.1 µM was determined as 54%, the inhibition at 1 µM is 49.9% and the inhibition at 0.03 µM came out at 12%.

Consider `Nc1nc(Nc2cccc([S+]([O-])CC3CNC(=O)O3)c2)sc1C(=O)c1c(Cl)cccc1Cl` (stereo not drawn) [DD(129)], for which the inhibition at 0.1 µM was 33%, the inhibition at 1 µM amounted to 33.3% and the inhibition at 0.03 µM worked out at 19%.

As to `CN(C)CCC[S+]([O-])c1cccc(Nc2nc(N)c(C(=O)c3c(Cl)cccc3Cl)s2)c1` (stereo not drawn) [DD(130)], the inhibition at 0.1 µM stood at 41%, the inhibition at 1 µM amounted to 56% and the inhibition at 0.03 µM stood at 12%.

Take `Nc1nc(Nc2cccc([S+]([O-])CCN3CCCCC3)c2)sc1C(=O)c1c(Cl)cccc1Cl` (stereo not drawn) [DD(131)]: the inhibition at 0.1 µM was found to be 32%, the inhibition at 1 µM came out at 57% and the inhibition at 0.03 µM was found to be 13%.

Consider `Nc1nc(Nc2cccc([S+]([O-])CC3CO3)c2)sc1C(=O)c1c(Cl)cccc1Cl` (stereo not drawn) [DD(132)], for which the inhibition at 0.1 µM stood at 64%, the inhibition at 1 µM was 62% and the inhibition at 0.03 µM amounted to 44%.

On to `CC(C)CC[S+]([O-])c1cccc(Nc2nc(N)c(C(=O)c3c(Cl)cccc3Cl)s2)c1` (stereo not drawn) [DD(133)], for which the inhibition at 0.1 µM came to 28%, the inhibition at 1 µM stood at 24.3% and the inhibition at 0.03 µM was found to be 14%.
